Like-named read-outs stand apart in the source and are kept apart here.
What was measured:
[1] = tested on: Diabrotica balteata (rootworm larvae); assay: pest mortality, Diabrotica balteata, residual test; format: in vivo; conditions: 500 ppm, filter paper/maize seed, duration 3 days
Description: (§1) The activity of each compound was determined using a variety of insect mites and nematode pests. The compound was used in the form of liquid preparations containing from 100 to 500 parts per million (ppm) by weight of the compound. The preparations were made by dissolving the compound in acetone and diluting the solutions with water containing 0.1% by weight of a wetting agent sold under the trade name "SYNPERONIC" NX until the liquid preparations contained the required concentration of the product. "SYNPERONIC" is a Registered Trade Mark.
(§2) The test procedure adopted with regard to each pest was basically the same and comprised supporting a number of the pests on a medium which was usually a host plant or a food stuff on which the pests feed, and treating either or both the pests and the medium with the preparations. The mortality of the pests was then assessed at periods usually varying from one to seven days after the treatment. […]

Puccinia recondita = assay: foliar fungal disease control, Puccinia recondita on wheat; format: in vivo
Description: (§3) The compounds were tested against a variety of foliar fungal diseases of plants. The technique employed was as follows.
(§4) The plants were grown in John Innes Potting Compost (No 1 or 2) in 4 cm diameter minipots. The test compounds were formulated either by bead milling with aqueous Dispersol T or as a solution in acetone or acetone/ethanol which was diluted to the required concentration immediately before use. […] The sprays were applied to maximum retention and the root drenches to a final concentration equivalent to approximately 40 ppm a.i./dry soil. Tween 20, to give a final concentration of 0.05%, was added when the sprays were applied to cereals.
(§5) For most of the tests the compound was applied to the soil (roots) and to the foliage (by spraying) one or two days before the plant was inoculated with the disease. An exception was the test on Erysiphe graminis in which the plants were inoculated 24 hours before treatment. Foliar pathogens were applied by spray as spore suspensions onto the leaves of test plants. After inoculation, the plants were put into an appropriate environment to allow infection to proceed and then incubated until the disease was ready for assessment. The period between inoculation and assessment varied from four to fourteen days according to the disease and environment.
(§6) The disease control was recorded by the following grading: […]

[2] = tested on: Musca domestica (houseflies - adults); assay: pest mortality, Musca domestica, contact test; format: in vivo; conditions: 500 ppm, cotton wool/sugar, duration 1 day
Description: as §1, §2

Cercospora arachidicola = assay: foliar fungal disease control, Cercospora arachidicola on peanut; format: in vivo
Description: as §3, §4, §5, §6

Venturia inaequalis = assay: foliar fungal disease control, Venturia inaequalis on apple; format: in vivo
Description: as §3, §4, §5, §6

[3] = tested on: Chilo partellus (maize stem borers); assay: pest mortality, Chilo partellus, residual test; format: in vivo; conditions: 500 ppm, oil seed rape leaf, duration 3 days
Description: as §1, §2

Plasmopara viticola = assay: foliar fungal disease control, Plasmopara viticola on vine; format: in vivo
Description: as §3, §4, §5, §6

[4] = tested on: Tetranychus uritcae (spider mites and ova); assay: pest mortality, Tetranychus uritcae, contact test; format: in vivo; conditions: 500 ppm, French bean leaf, duration 3 days
Description: as §1, §2

Pyricularia oryzae = format: in vivo, Pyricularia oryzae (rice)
Erysiphe graminis hordei = assay: foliar fungal disease control, Erysiphe graminis hordei on barley; format: in vivo; conditions: inoculated 24 hours before treatment
Description: as §3, §4, §5, §6

Phytophthora infestans = format: in vivo, Phytophthora infestans (tomato)
[5] = 100 ppm foliar spray plus root drench approx. 40 ppm a.i./dry soil

Structure (SMILES) | grading of mortality, DB [1] | disease control grading, Puccinia recondita (wheat) (Puccinia recondita; [5]) | grading of mortality, MD [2] | disease control grading, Cercospora arachidicola (peanut) (Cercospora arachidicola; [5]) | disease control grading, Venturia inaequalis (apple) (Venturia inaequalis; [5]) | grading of mortality, CP [3] | disease control grading, Plasmopara viticola (vine) (Plasmopara viticola; [5]) | grading of mortality, TUe [4] | disease control grading, Pyricularia oryzae (rice) (Pyricularia oryzae; [5]) | disease control grading, Erysiphe graminis hordei (barley) (Erysiphe graminis hordei; [5]) | disease control grading, Phytophthora infestans (tomato) (Phytophthora infestans; [5]) | disease control grading, Puccinia recondita (wheat) (Puccinia recondita; 40 ppm foliar spray only) | disease control grading, Cercospora arachidicola (peanut) (Cercospora arachidicola; 40 ppm foliar spray only) | disease control grading, Venturia inaequalis (apple) (Venturia inaequalis; 40 ppm foliar spray only) | disease control grading, Plasmopara viticola (vine) (Plasmopara viticola; 40 ppm foliar spray only) | disease control grading, Phytophthora infestans (tomato) (Phytophthora infestans; 40 ppm foliar spray only) | disease control grading, Pyricularia oryzae (rice) (Pyricularia oryzae; 40 ppm foliar spray only) | disease control grading, Erysiphe graminis hordei (barley) (Erysiphe graminis hordei; 40 ppm foliar spray only)
CO/C=C(/C(=O)OC)c1ccccc1Oc1ccc(Cl)cn1 [Compound 14 (Table I), (E)-methyl 2-[2'-(5"-chloropyridin-2"-yloxy)phenyl]-3-methoxyacrylate] | 5 (50-79% mortality) | 4 | 9 (80-100% mortality) | 4 | 2 (6-25% of disease on untreated plants) | 9 (80-100% mortality) | 4 | 0 (less than 50% mortality) | 4 | 4 | – | – | – | – | – | – | – | –
CO/C=C(/C(=O)OC)c1ccccc1Sc1ccc(Cl)cn1 [Compound 14 (Table II), (E-)-methyl 2-[2'-(5"-chloropyridin-2"-ylthio)phenyl]-3-methoxyacrylate] | – | 4 | – | 4 | 4 | – | 4 | – | 3 (trace-5% of disease on untreated plants) | 4 | 0 (60-100% of disease on untreated plants) | – | – | – | – | – | – | –
CO/C=C(/C(=O)OC)c1ccccc1Oc1ncc(Cl)cn1 [Compound 67 (Table I)] | – | – | – | – | – | – | – | – | – | – | – | 3 (trace-5% of disease on untreated plants) | 4 | 0 (60-100% of disease on untreated plants) | 4 | 0 (60-100% of disease on untreated plants) | 0 (60-100% of disease on untreated plants) | 2 (6-25% of disease on untreated plants)
CO/C=C(/C(=O)OC)c1ccccc1Oc1cc(C(Cl)(Cl)Cl)nc(Cl)n1 [Compound 139 (Table I)] | – | 4 | – | 4 | 0 (60-100% of disease on untreated plants) | – | 4 | – | 2 (6-25% of disease on untreated plants) | 0 (60-100% of disease on untreated plants) | 0 (60-100% of disease on untreated plants) | – | – | – | – | – | – | –
CO/C=C(/C(=O)OC)c1ccccc1Oc1cc(Cl)nc(Cl)n1 [Compound 140 (Table I)] | – | 2 (6-25% of disease on untreated plants) | – | 0 (60-100% of disease on untreated plants) | 0 (60-100% of disease on untreated plants) | – | 4 | – | 0 (60-100% of disease on untreated plants) | 0 (60-100% of disease on untreated plants) | 0 (60-100% of disease on untreated plants) | – | – | – | – | – | – | –
CO/C=C(/C(=O)OC)c1ccccc1Oc1cccc(C(F)(F)F)n1 [Compound 22 (Table I)] | – | 4 | – | 4 | 4 | – | 4 | – | 4 | 4 | 3 (trace-5% of disease on untreated plants) | – | – | – | – | – | – | –
CO/C=C(/C(=O)OC)c1ccccc1Oc1ccc(Br)cn1 [Compound 15 (Table I)] | 9 (80-100% mortality) | 4 | 0 (less than 50% mortality) | 3 (trace-5% of disease on untreated plants) | – | – | 4 | 0 (less than 50% mortality) | 3 (trace-5% of disease on untreated plants) | 4 | – | – | – | – | – | – | – | –
CO/C=C(/C(=O)OC)c1ccccc1Oc1ccc2ccccc2n1 [Compound 165 (Table I)] | – | 2 (6-25% of disease on untreated plants) | – | 4 | 4 | – | 4 | – | 2 (6-25% of disease on untreated plants) | 4 | 3 (trace-5% of disease on untreated plants) | – | – | – | – | – | – | –
CO/C=C(/C(=O)OC)c1ccccc1Oc1cc(F)nc(F)n1 [Compound 138 (Table I)] | – | 4 | – | 0 (60-100% of disease on untreated plants) | 3 (trace-5% of disease on untreated plants) | – | 4 | – | 0 (60-100% of disease on untreated plants) | 0 (60-100% of disease on untreated plants) | 0 (60-100% of disease on untreated plants) | – | – | – | – | – | – | –

Source: patent US5057146A (priority 1986, dated 1991)
